In PMC9627135 (Cancer discovery, 2022):

What was measured:
[1] = system: primary human hepatocytes; settings: cited from earlier work
ENL-FKBP12(F36V) = ENL-FKBP12(F36V) (Homo sapiens, UniProt Q03111); assay: dTAG-mediated degradation of ENL-FKBP12; type: cell-based; settings: treatment for 6 or 24 hours
HOXA9/10 expression = assay: Time course of HOXA9/10 expression; type: cell-based; settings: Supplementary Fig. S6D, S6E

In the case of C[C@H]1CCCN1Cc1nc2cc(NC(=O)c3ccc4c(cnn4C)c3)ccc2[nH]1 [SGC-iMLLT], the “half-life in primary human hepatocytes” value [1] is given as “modest half-life”.

In the case of CC[C@H](C(=O)N1CCCC[C@H]1C(=O)O[C@H](CCc1ccc(OC)c(OC)c1)c1ccccc1OCC(=O)NCCCCCCOc1cccc2c1C(=O)N(C1CCC(=O)NC1=O)C2=O)c1cc(OC)c(OC)c(OC)c1 (stereo partly drawn) [dTAG13], the “level of ENL-FKBP12 proteins” value (ENL-FKBP12(F36V)) is reported as “substantial decrease of ENL-FKBP12 proteins”.

With CC(C)N(C[C@H]1O[C@@H](n2cnc3c(N)ncnc32)[C@H](O)[C@@H]1O)[C@H]1C[C@@H](CCc2nc3cc(C(C)(C)C)ccc3[nH]2)C1 [EPZ-5676] the “kinetics of suppression of HOXA9/10 expression” value (HOXA9/10 expression) was “suppressed expression of the same genes at much later time points”.
